{
  "source": "patent US6096725A",
  "about": "“Methods of using αGal oligosaccharides as immune system targeting agents” (Neose Technologies, Inc., priority 1997, dated 2000)",
  "key": {"[1]": {"experiment": "Pharmacokinetics after 15 minute intravenous bolus in baboons", "format": "in vivo, baboon", "conditions": "for clearance / half-life / Vd: baboon, plasma, iv, 500 umol/kg, 0.5 mMol/Kg 15 minute i.v. bolus; for Vd: read-out: Volume of Distribution", "procedure": "The pharmacokinetics of the αGal trisaccharide compositions and the αGal pentasaccharide compositions were determined by delivering to one baboon by 15 minute intravenous bolus, 0.5 mMol/Kg of one oligosaccharide and 48 hours later, delivering 0.5 mmol/Kg of the second oligosaccharide, and for a second baboon, delivering the oligosaccharides according to the same procedure, but in the reverse order.\nThree Baboons were outfitted with indwelling venous and arterial catheters to the femoral vessels, and held in place with the aid of a jacket. Oligosaccharides were administered through the catheter in a 15 minute continuous infusion.\nThe clearance is used to calculate the infusion rate needed to maintain a desired drug concentration. The half-life describes how quickly concentrations diminish with time. Mathematical formulations known in the art were applied to estimate the pharmacokinetic parameters of the αGal trisaccharide and αGal pentasaccharide. […] Compared to other drugs, the volumes of distribution of these oligosaccharides are low, less than the extravascular water volume (<400 mL/kg). The clearance is typical of compounds eliminated by GFR (glomerular filtration rate)."}, "[2]": {"test_system": "mouse endothelial cell line MAE", "experiment": "Cytotoxicity of baboon serum against MAE cells with exogenously added αGal pentasaccharide", "format": "cell-based", "procedure": "FIG. 4 Cytotoxicity of serum from a baboon receiving αGal pentasaccharide (αGal-LNnT) intravenously. Shaded circles represent cytotoxicity of serum as recovered from baboon against mouse endothelial cell line MAE. Other lines indicate varying concentrations of exogenously added αGal-pentasaccharide into cytotoxicity assay. Added concentrations of the αGal pentasaccharide are depicted as follows: 2.0 mM, open circle; 1.0 mM, ×; 0.5 mM, diamond; and 0.25 mM, open square. […] Sera were incubated with serial dilutions of αGal oligosaccharides at 37° C. for 1 hour, then added to αGal-expressing monolayers (pig kidney cells, PK-15) in Terasaki plates for 1 hour at 37° C. Cytotoxicity was mediated by either endogenous complement, or the sera were de-complemented (heat inactivated for 30 minutes at 56° C.) and exogenous (rabbit) complement was added. After washing away excess serum, the viable dye mix \"live-dead\" (calcein AM/ethidium homodimer (Molecular Probes Inc., Eugene Oreg.)) was added and monolayers were scored for viability by fluorescence microscopy. Three Baboons were outfitted with indwelling venous and arterial catheters to the femoral vessels, and held in place with the aid of a jacket. Oligosaccharides were administered through the catheter in a 15 minute continuous infusion."}, "[3]": {"conditions": "to attain 0.5 mM steady state serum concentration"}, "[4]": {"conditions": "to attain 1.0 mM steady state serum concentration"}, "[5]": {"conditions": "to attain 2.0 mM steady state serum concentration"}},
  "note": "Where two headings read alike, the source gives them in different places.",
  "data": [
    {"smiles": "CC(=O)N[C@H]1[C@H](O[C@H]2[C@@H](O)[C@@H](CO)O[C@@H](O[C@H]3[C@H](O)[C@@H](O)C(O)O[C@@H]3CO)[C@@H]2O)O[C@H](CO)[C@@H](O[C@@H]2O[C@H](CO)[C@H](O)[C@H](O[C@H]3O[C@H](CO)[C@H](O)[C@H](O)[C@H]3O)[C@H]2O)[C@@H]1O", "note": "(some centres unmarked) [αGal pentasaccharide, Galα1-3Galβ1-4GlcNAcβ1-3Galβ1-4Glc]", "values": [
      {"measurement": "clearance", "setting": "[1]; baboon 1003", "value": 2.93, "unit": "mL/min/kg"},
      {"measurement": "half-life", "setting": "[1]; baboon 1003", "value": 47.3, "unit": "min"},
      {"measurement": "Vd", "setting": "[1]; baboon 1003", "value": 0.199, "unit": "L/kg"},
      {"measurement": "clearance", "setting": "[1]; baboon 1015", "value": 3.97, "unit": "mL/min/kg"},
      {"measurement": "half-life", "setting": "[1]; baboon 1015", "value": 40.2, "unit": "min"},
      {"measurement": "Vd", "setting": "[1]; baboon 1015", "value": 0.23, "unit": "L/kg"},
      {"measurement": "Calculated continuous infusion, total amount", "setting": "[1]; [3]", "value": 1.44, "unit": "Kg/14 days"},
      {"measurement": "Calculated loading dose", "setting": "[1]; [3]", "value": 4.12, "unit": "g/20 Kg baboon"},
      {"measurement": "Calculated loading dose (bolus or 15 min infusion)", "setting": "[1]; [3]", "value": 206, "unit": "mg/kg"},
      {"measurement": "Calculated continuous infusion, total amount", "setting": "[1]; [4]", "value": 2.88, "unit": "Kg/14 days"},
      {"measurement": "Calculated loading dose", "setting": "[1]; [4]", "value": 8.24, "unit": "g/20 Kg baboon"},
      {"measurement": "Calculated loading dose (bolus or 15 min infusion)", "setting": "[1]; [4]", "value": 412, "unit": "mg/kg"},
      {"measurement": "Calculated continuous infusion, total amount", "setting": "[1]; [5]", "value": 5.74, "unit": "Kg/14 days"},
      {"measurement": "Calculated loading dose", "setting": "[1]; [5]", "value": 16.48, "unit": "g/20 Kg baboon"},
      {"measurement": "Calculated loading dose (bolus or 15 min infusion)", "setting": "[1]; [5]", "value": 824, "unit": "mg/kg"},
      {"measurement": "Inhibition of MAE cell cytotoxicity, in words", "setting": "[2]; baboon serum (FIG. 4), similar results with pig PK15 cells", "value": "fully inhibits MAE cell cytotoxicity"},
      {"measurement": "Concentration of αGal pentasaccharide that inhibits serum cytotoxicity of MAE cells", "setting": "[2]; baboon serum, exogenously added oligosaccharide (FIG. 4)", "value": "greater than 1 mM"}
    ]}
  ]
}
